Experiments:
[1] = target: recombinant His-tag Wip1(2-420) protein (amino acids #2-420) (Homo sapiens (Human), UniProt O15297); experiment: Wip1(2-420) phosphatase enzyme FDP assay; format: biochemical; settings: fluorescein diphosphate (FDP) substrate, RT 2 hours, fluorescence Ex485/Em535; read-out: WIP1 (Truncated 2-420) FDP Assay: IC50
[2] = target: recombinant His-tag Wip1 full length protein (amino acids #1-605) (Homo sapiens (Human), UniProt O15297); experiment: Wip1 full length phosphatase enzyme FDP assay; format: biochemical; settings: fluorescein diphosphate (FDP) substrate, RT 2 hours, fluorescence Ex485/Em535
Sequence of recombinant His-tag Wip1 full length protein (amino acids #1-605) (O15297 whole entry, the tested form may be a part): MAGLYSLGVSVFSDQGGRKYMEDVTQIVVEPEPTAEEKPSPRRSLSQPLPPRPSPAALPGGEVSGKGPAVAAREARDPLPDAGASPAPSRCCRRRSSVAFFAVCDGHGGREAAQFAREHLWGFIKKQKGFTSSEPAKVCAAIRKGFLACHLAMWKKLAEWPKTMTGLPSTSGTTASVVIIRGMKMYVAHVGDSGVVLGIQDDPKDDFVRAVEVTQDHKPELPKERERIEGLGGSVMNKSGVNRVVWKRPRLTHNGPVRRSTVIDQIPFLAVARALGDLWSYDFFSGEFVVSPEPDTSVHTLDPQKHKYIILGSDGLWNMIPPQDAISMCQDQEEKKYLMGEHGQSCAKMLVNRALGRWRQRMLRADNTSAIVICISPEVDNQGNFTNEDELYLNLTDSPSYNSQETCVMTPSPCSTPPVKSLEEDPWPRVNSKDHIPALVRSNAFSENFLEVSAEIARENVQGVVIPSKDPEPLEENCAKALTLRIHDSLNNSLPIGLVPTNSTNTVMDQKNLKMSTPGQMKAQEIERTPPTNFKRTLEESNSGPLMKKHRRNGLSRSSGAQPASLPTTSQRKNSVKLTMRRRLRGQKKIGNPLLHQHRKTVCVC
Method: The Human Wip1 (2-420, aa 2-420) or Wip1 full length (aa 1-605) DNA sequence was codon optimized and synthesized by Genscript for insect cell expression. The open reading frame of Wip1(2-420) with a N-terminal-His6 affinity tag followed by a TEV cleavage site was subcloned sites into the pFastBac1 expression vector. The recombinant bacmid DNA was transfected in Sf9 insect cells for baculovirus production. After 72 hours infection, the Sf9 cells were harvested by centrifugation and resuspended in lysis buffer containing 50 mM Tris/HCl, pH 8.0, 500 mM NaCl, 20% glycerol, Benzonase 0.5% CHAPS and Roche cOmplete™ EDTA free protease inhibitors. Cells were disrupted with microfluidizer and the debris was removed by centrifugation at 185,000 g for 1 hour. The supernatant was subjected to HisTrap FF for affinity purification. Proteins were eluted with a linear gradient of 0-500 mM imidazole in HisTrap buffer containing 50 mM Tris/HCl, pH 8.0, 500 mM NaCl and 20% glycerol, 0.05% CHAPS. The eluted protein was dialyzed against dialysis buffer (20 mM MES, 100 mM NaCl, 20% glycerol, 0.5 mM TCEP, 0.05% CHAPS) followed purification via HiTrap SP HP column. The protein was eluted with a gradient of 100 mM-2 M NaCl in dialysis buffer. His6-[…] was finally concentrated and loaded onto a size-exclusion column (NiLoad 16/600 Superdex 200 pg, GE Healthcare) pre-equilibrated with 50 mM MOPS (pH 7.5), 200 mM NaCl, 20% glycerol, 1 mM TCEP, 0.05% CHAPS and 0.1 mM EGTA. The peak fractions containing purified Nis6-Wip1(2-420) were pooled and concentrated to 1.0 mg/mL and flash frozen at −80° C.
Wip1 Length and Wip1(2-420) Phosphatase Enzyme FDP Assays.
Test compounds (252 mM stock in DMSO) were diluted 3 folds in series in DMSO and 1.2 μl per well were added into 384-well polypropylene black plates (Nunc). Twelve μl per well of Assay Buffer (100 mM NaCl, 50 mM MOPS, pH 7.5, 0.8 mM CHAPS, 0.1 mM EGTA, 30 mM MgCl2, 0.3 mM TCEP, 0.2 mg/mL BSA) was added followed by […] per well of 50.4 nM recombinant His-tag Wip1 full length protein (amino acids #1-605) or recombinant His-tag Wip1(2-420) protein (amino acids #2-420) in Assay Buffer and the plate was incubated at RT (22° C.) for 5 min. Ten mM of fluorescein diphosphate (FDP) in DMSO was diluted to […] in Assay Buffer and […] per well was added to the plate and incubated at RT (22° C.) for 2 hours. […] per well of 64.1 mM EDTA in water were added to stop the enzyme reaction. The plate was centrifuged at 1,200 rpm (Eppendorf 5810R Plate centrifuge) for 1 minute and fluorescence intensity (Ex485/Em535) was measured on Perkin Elmer Victor Reader. EC50 values were calculated using either Prism (GraphPad) or ActivityBase software (IDBS), The IC50 results are provided in Table M.

Sequence of recombinant His-tag Wip1(2-420) protein (amino acids #2-420) (O15297 2-420): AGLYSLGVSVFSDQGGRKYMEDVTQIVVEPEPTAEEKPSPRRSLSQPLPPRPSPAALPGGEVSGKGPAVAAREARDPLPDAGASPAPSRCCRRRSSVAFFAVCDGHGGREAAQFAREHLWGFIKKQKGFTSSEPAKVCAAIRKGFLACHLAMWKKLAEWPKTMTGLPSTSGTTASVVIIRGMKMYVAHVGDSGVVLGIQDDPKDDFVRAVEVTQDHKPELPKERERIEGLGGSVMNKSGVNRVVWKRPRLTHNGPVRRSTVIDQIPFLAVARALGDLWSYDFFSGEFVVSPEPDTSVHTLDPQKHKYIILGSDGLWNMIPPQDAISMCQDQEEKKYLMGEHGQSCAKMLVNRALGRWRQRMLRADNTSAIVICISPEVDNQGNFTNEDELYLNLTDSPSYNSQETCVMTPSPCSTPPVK

| SMILES | IC50 [1] | IC50 [2] |
| --- | --- | --- |
| Cc1ncc(Cl)cc1NC(C)c1ccc(C(=O)N[C@@H](CC2CCCC2)C(=O)NC2CC2)s1 (stereo partly drawn) [Compound 5, 5-[1-[(5-chloro-2-methyl-3-pyridyl)amino]ethyl]-N-[(1S)-1-(cyclopentylmethyl)-2-(cyclopropylamino)-2-oxo-ethyl]thiophene-2-carboxamide] | 13 nM | 24 nM |
| C[C@H](Nc1ccc(F)c(Cl)c1)c1ccc(C(=O)N[C@@H](CC2CCCC2)C(=O)NC2CC2)s1 [Compound 6, 5-[(1S)-1-(3-chloro-4-fluoro-anilino)ethyl]-N-[(1S)-1-(cyclopentylmethyl)-2-(cyclopropylamino)-2-oxo-ethyl]thiophene-2-carboxamide] | 6 nM | 9 nM |
| C[C@@H](Nc1ccc(F)c(Cl)c1)c1ccc(C(=O)N[C@@H](CC2CCCC2)C(=O)NC2CC2)s1 [Compound 7, 5-[(1R)-1-(3-chloro-4-fluoro-anilino)ethyl]-N-[(1S)-1-(cyclopentylmethyl)-2-(cyclopropylamino)-2-oxo-ethyl]thiophene-2-carboxamide] | 80 nM | 68 nM |
| Cc1ncc(Cl)cc1N[C@@H](C)c1ccc(C(=O)N[C@@H](CC2CCCC2)C(=O)NC2CC2)s1 [Compound 8, 5-[(1S)-1-[(5-chloro-2-methyl-3-pyridyl)amino]ethyl]-N-[(1S)-1-(cyclopentylmethyl)-2-(cyclopropylamino)-2-oxo-ethyl]thiophene-2-carboxamide] | 8 nM | 11 nM |
| Cc1ncc(Cl)cc1NC(C)c1ccc(C(=O)N[C@@H](CC2CCCC2)C(=O)NC23CC(C2)C3)s1 (stereo partly drawn) [Compound 10, N-[(1S)-2-(1-bicyclo [1.1.1]pentanylamino)-1-(cyclopentylmethyl)-2-oxo-ethyl]-5-[1-[(5-chloro-2-methyl-3-pyridyl)amino]ethyl]thiophene-2-carboxamide] | 10 nM | 18 nM |
| Cc1ncc(Cl)cc1N[C@@H](C)c1ccc(C(=O)N[C@@H](CC2CCCC2)C(=O)NC23CC(C2)C3)s1 [Compound 11, (2S)-N-{bicyclo[1.1.1]pentan-1-yl}-2-({5-[(1S)-1-[(5-chloro-2-methylpyridin-3-yl)amino]ethyl]thiophen-2-yl}formamido)-3-cyclopentylpropanamide] | 6 nM | 9 nM |
| Cc1ncc(Cl)cc1N[C@H](C)c1ccc(C(=O)N[C@@H](CC2CCCC2)C(=O)NC23CC(C2)C3)s1 [Compound 12, (2S)-N-{bicyclo[1.1.1]pentan-1-yl}-2-({5-[(1R)-1-[(5-chloro-2-methylpyridin-3-yl)amino]ethyl]thiophen-2-yl}formamido)-3-cyclopentylpropanamide] | 148 nM | 356 nM |
| Cc1ncc(Cl)cc1NC(C)c1ccc(C(=O)N[C@@H](CC2CCCC2)C(=O)NC2CC2(F)F)s1 (stereo partly drawn) [Compound 13, (2S)-2-[(5-{1-[(5-chloro-2-methylpyridin-3-yl)amino]ethyl}thiophen-2-yl)formamido]-3-cyclopentyl-N-(2,2-difluorocyclopropyl)propanamide] | 10 nM | 11 nM |
| Cc1ncc(Cl)cc1N[C@@H](C)c1ccc(C(=O)N[C@@H](CC2CCCC2)C(=O)NC2CC2(F)F)s1 (stereo partly drawn) [Compound 14, (2S)-2-({5-[(1S)-1-[(5-chloro-2-methylpyridin-3-yl)amino]ethyl]thiophen-2-yl}formamido)-3-cyclopentyl-N-(2,2-difluorocyclopropyl)propanamide] | 7 nM | 6 nM |
| Cc1ncc(Cl)cc1N[C@H](C)c1ccc(C(=O)N[C@@H](CC2CCCC2)C(=O)NC2CC2(F)F)s1 (stereo partly drawn) [Compound 15, (2S)-2-({5-[(1R)-1-[(5-chloro-2-methylpyridin-3-yl)amino]ethyl]thiophen-2-yl}formamido)-3-cyclopentyl-N-(2,2-difluorocyclopropyl)propanamide] | 80 nM | 71 nM |
| Cc1ncc(Cl)cc1N[C@@H](C)c1ccc(C(=O)N[C@@H](CC2CCCC2)C(=O)NC23CC(F)(C2)C3)s1 [Compound 16, (2S)-2-({5-[(1S)-1-[(5-chloro-2-methylpyridin-3-yl)amino]ethyl]thiophen-2-yl}formamido)-3-cyclopentyl-N-{3-fluorobicyclo[1.1.1]pentan-1-yl}propanamide] | 7 nM | 10 nM |
| Cc1ncc(Cl)cc1N[C@@H](C)c1ccc(C(=O)N[C@@H](CC2CCCC2)C(=O)NC23CC(C)(C2)C3)s1 [Compound 17, (2S)-2-({5-[(1S)-1-[(5-chloro-2-methylpyridin-3-yl)amino]ethyl]thiophen-2-yl}formamido)-3-cyclopentyl-N-{3-methylbicyclo[1.1.1]pentan-1-yl}propanamide] | 7 nM | 6 nM |
| Cc1ncc(Cl)cc1N[C@@H](C)c1ccc(C(=O)N[C@@H](CC2CCCC2)C(=O)Nc2ccc(F)cc2)s1 [Compound 18, (2S)-2-({5-[(1S)-1-[(5-chloro-2-methylpyridin-3-yl)amino]ethyl]thiophen-2-yl}formamido)-3-cyclopentyl-N-(4-fluorophenyl)propanamide] | 7 nM | 8 nM |
| COC(=O)C12CC(NC(=O)[C@H](CC3CCCC3)NC(=O)c3ccc([C@H](C)Nc4cc(Cl)cnc4C)s3)(C1)C2 [Compound 19, methyl 3-[(2S)-2-({5-[(1S)-1-[(5-chloro-2-methylpyridin-3-yl)amino]ethyl]thiophen-2-yl}formamido)-3-cyclopentylpropanamido]bicyclo[1.1.1]pentane-1-carboxylate] | 11 nM | 13 nM |
| Cc1ncc(Cl)cc1N[C@@H](C)c1ccc(C(=O)N[C@@H](CC2CCCC2)C(=O)NC23CC(O)(C2)C3)s1 [Compound 20, (2S)-2-({5-[(1S)-1-[(5-chloro-2-methylpyridin-3-yl)amino]ethyl]thiophen-2-yl}formamido)-3-cyclopentyl-N-{3-hydroxybicyclo[1.1.1]pentan-1-yl}propanamide] | 8 nM | 10 nM |
| Cc1ncc(Cl)cc1N[C@H](C)c1ccc(C(=O)N[C@@H](CC2CCCC2)C(=O)N[C@H]2CC2(F)F)s1 [Compound 21, (2S)-2-({5-[(1R)-1-[(5-chloro-2-methylpyridin-3-yl)amino]ethyl]thiophen-2-yl}formamido)-3-cyclopentyl-N-[(1S)-2,2-difluorocyclopropyl]propanamide] | 109 nM | 139 nM |
| Cc1ncc(Cl)cc1N[C@@H](C)c1ccc(C(=O)N[C@@H](CC2CCCC2)C(=O)N[C@H]2CC2(F)F)s1 [Compound 23, (2S)-2-({5-[(1S)-1-[(5-chloro-2-methylpyridin-3-yl)amino]ethyl]thiophen-2-yl}formamido)-3-cyclopentyl-N-[(1S)-2,2-difluorocyclopropyl]propanamide] | 5 nM | 8 nM |
| Cc1ncc(Cl)cc1N[C@@H](C)c1ccc(C(=O)N[C@@H](CC2CCCC2)C(=O)N[C@@H]2CC2(F)F)s1 [Compound 24, (2S)-2-({5-[(1S)-1-[(5-chloro-2-methylpyridin-3-yl)amino]ethyl]thiophen-2-yl}formamido)-3-cyclopentyl-N-[(1R)-2,2-difluorocyclopropyl]propanamide] | 8 nM | 8 nM |
| Cc1ncc(Cl)cc1N[C@@H](C)c1ccc(C(=O)N[C@@H](CC2CCCC2)C(=O)NC2CC(F)(F)C2)s1 [Compound 25, (2S)-2-({5-[(1S)-1-[(5-chloro-2-methylpyridin-3-yl)amino]ethyl]thiophen-2-yl}formamido)-3-cyclopentyl-N-(3,3-difluorocyclobutyl)propanamide] | 5 nM | 8 nM |

Source: patent publication US20240116910A1, “Heterocycles as WIP1 Inhibitors” (PMV Pharmaceuticals, Inc., priority 2022, published 2024)
